From PMC8462401 (Blood, 2021)

Assays:
[1] = target: FGFR3 (Homo sapiens, UniProt P22607); assay: BaF3 panel of […] receptor tyrosine kinases, […] inhibition at […]; type: cell-based; conditions: BaF3, read-out: % inhibition at 100 nM
[2] = target: vascular endothelial growth factor receptor 1 (Homo sapiens, UniProt P17948); assay: as above; type: cell-based; conditions: BaF3, read-out: % inhibition at 100 nM
[3] = target: T1, MER (Homo sapiens, UniProt Q12866); assay: radiometric kinase assay at ATP Km; type: biochemical
T1 sequence (Q12866 21-999): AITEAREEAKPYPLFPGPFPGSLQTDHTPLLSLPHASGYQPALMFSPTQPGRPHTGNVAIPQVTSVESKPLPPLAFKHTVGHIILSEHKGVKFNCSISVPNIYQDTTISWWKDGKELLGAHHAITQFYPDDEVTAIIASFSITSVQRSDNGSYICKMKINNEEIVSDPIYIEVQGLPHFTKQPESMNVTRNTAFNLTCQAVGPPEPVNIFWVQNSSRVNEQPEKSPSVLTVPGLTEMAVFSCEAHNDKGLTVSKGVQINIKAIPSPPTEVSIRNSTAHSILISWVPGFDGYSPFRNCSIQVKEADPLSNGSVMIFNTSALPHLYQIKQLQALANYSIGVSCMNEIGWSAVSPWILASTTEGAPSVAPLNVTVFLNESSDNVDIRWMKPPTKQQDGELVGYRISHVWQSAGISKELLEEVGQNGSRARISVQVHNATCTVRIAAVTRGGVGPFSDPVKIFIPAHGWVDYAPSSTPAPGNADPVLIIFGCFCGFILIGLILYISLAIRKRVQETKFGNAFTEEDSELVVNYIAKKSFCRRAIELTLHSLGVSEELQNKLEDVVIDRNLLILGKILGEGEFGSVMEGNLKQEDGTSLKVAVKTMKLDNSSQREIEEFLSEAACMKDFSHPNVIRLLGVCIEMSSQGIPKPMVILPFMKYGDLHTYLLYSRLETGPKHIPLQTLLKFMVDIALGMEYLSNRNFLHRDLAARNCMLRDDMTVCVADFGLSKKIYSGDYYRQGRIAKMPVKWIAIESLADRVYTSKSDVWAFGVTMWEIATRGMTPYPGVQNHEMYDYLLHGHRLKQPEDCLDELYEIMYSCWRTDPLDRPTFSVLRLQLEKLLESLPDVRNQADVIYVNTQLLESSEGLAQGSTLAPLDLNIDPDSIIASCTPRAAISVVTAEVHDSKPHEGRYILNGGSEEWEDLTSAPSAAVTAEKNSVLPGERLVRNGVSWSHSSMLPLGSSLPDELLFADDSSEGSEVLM

vascular endothelial growth factor receptor 1, sequence (P17948 27-1338): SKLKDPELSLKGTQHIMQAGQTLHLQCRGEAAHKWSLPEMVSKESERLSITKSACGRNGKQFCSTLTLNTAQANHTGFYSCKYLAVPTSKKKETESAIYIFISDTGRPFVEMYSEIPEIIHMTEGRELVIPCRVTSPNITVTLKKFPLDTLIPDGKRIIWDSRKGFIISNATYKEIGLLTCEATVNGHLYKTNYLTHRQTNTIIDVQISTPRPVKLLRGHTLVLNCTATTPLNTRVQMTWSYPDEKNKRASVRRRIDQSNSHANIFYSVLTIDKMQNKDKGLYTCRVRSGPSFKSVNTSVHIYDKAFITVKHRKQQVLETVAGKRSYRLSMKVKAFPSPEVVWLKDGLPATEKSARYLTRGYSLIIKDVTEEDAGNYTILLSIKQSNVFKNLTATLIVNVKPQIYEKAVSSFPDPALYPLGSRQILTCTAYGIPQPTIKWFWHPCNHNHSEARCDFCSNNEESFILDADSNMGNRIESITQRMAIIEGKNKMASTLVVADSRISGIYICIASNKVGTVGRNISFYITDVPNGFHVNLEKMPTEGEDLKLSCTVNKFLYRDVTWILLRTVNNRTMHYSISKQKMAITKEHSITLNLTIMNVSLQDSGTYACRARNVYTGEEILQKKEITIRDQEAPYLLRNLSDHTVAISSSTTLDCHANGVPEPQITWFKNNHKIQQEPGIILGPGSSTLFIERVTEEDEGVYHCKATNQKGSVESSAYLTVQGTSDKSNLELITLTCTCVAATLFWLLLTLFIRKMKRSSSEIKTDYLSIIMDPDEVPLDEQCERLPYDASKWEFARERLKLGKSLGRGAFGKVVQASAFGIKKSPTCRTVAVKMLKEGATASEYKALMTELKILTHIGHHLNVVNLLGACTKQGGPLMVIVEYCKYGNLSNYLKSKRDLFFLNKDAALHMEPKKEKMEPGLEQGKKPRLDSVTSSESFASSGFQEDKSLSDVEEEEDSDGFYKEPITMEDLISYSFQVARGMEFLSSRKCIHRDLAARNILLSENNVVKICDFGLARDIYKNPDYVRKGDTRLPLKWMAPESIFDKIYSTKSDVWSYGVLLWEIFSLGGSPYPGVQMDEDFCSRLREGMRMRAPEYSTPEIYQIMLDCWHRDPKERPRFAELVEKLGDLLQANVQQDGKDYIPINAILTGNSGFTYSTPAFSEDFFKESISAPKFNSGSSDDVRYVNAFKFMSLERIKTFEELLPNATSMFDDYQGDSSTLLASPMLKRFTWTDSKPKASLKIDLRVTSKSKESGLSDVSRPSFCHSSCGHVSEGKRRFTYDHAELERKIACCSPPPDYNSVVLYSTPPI
FGFR3, sequence (P22607 23-806): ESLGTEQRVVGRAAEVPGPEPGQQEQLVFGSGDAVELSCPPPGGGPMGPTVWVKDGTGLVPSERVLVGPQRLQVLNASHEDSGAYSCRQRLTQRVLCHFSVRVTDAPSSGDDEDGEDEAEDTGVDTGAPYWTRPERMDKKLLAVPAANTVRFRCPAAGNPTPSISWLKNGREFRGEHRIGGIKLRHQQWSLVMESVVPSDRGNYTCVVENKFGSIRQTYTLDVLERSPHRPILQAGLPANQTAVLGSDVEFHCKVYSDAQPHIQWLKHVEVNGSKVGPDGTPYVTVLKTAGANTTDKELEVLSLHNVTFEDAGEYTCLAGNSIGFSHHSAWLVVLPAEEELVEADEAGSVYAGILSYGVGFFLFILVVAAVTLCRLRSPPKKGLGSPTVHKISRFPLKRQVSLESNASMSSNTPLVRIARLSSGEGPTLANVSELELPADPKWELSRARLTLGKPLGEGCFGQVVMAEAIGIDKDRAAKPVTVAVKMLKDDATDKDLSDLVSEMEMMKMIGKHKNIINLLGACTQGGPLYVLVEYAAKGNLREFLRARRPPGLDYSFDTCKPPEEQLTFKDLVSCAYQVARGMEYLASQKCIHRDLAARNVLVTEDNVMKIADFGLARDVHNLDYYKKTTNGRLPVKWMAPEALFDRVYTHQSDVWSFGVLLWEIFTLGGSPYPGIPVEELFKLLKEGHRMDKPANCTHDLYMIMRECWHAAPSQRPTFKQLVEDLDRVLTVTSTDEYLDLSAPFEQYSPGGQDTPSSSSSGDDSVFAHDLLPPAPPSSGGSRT

inhibition at 0.1 µM [1]: 60% | inhibition at 0.1 µM [2]: 60% | IC50 [3]: 0.044 µM
Structure (SMILES): Nc1ncc(-c2cnn(C3CCNCC3)c2)cc1-c1nnc(CC2CC2)o1 [SLC-391, 3-(5-(cyclopropylmethyl)-1,3,4-oxadiazole-2-yl)-5-(1-(piperidine-4-yl)-1H-pyrazole-4-yl)pyridine-2-amine]
